Values after ≈ are worked out from the molar mass of the structure shown. Values belong to the molecule of their own block, whether it stands above or below them.
Key:
Assay in all cases: ≥ marks a high value that may be exact or a test limit, other limits are often not marked, values filed in µg/mL are converted to µM
[1] = test system: Bacillus subtilis AB91021
[2] = test system: Bacillus thuringiensis AB92037
Escherichia coli AB94012 = test system: Escherichia coli AB94012
[3] = test system: Micrococcus luteus AB93113
[4] = test system: Pseudomonas aeruginosa AB93066
[5] = test system: Staphylococcus aureus AB94004
[6] = test system: Staphylococcus aureus P1369
[7] = test system: Staphylococcus aureus P1374
[8] = test system: Staphylococcus aureus P1386
[9] = test system: Staphylococcus epidermidis P1111
[10] = test system: Staphylococcus epidermidis P1389
[11] = test system: Batrachochytrium dendrobatidis
[12] = test system: Escherichia coli ATCC 25922
[13] = test system: Bacillus megaterium ATCC 9885
Candida albicans = test system: Candida albicans
[14] = test system: Enterobacter cloacae ATCC 11775
[15] = test system: Escherichia coli 363 ATCC 11775
Klebsiella pneumoniae = test system: Klebsiella pneumoniae
Neisseria meningitidis = test system: Neisseria meningitidis
Pseudomonas aeruginosa = test system: Pseudomonas aeruginosa
Saccharomyces cerevisiae = test system: Saccharomyces cerevisiae
[16] = test system: Salmonella enterica subsp. enterica serovar Enteritidis
Salmonella typhimurium = test system: Salmonella typhimurium
[17] = test system: Staphylococcus aureus ATCC 25923
[18] = test system: Staphylococcus haemolyticus
Vibrio cholerae = test system: Vibrio cholerae
[19] = test system: Bacillus subtilis ATCC 9372
[20] = test system: Escherichia coli ATCC 8739
[21] = test system: Proteus vulgaris NCTC 4635
[22] = test system: Pseudomonas aeruginosa ATCC 9027
[23] = test system: Staphylococcus aureus ATCC 6538
Acinetobacter baumannii = test system: Acinetobacter baumannii
[24] = test system: Candida albicans ATCC 90028
[25] = test system: Escherichia coli ATCC 25726
[26] = test system: Klebsiella pneumoniae ATCC 700603
[27] = test system: Proteus mirabilis ATCC 25933
[28] = test system: Pseudomonas aeruginosa ATCC 27853
[29] = test system: Staphylococcus aureus ATCC 29213
[30] = test system: Staphylococcus epidermidis RP62A/1
[31] = test system: Staphylococcus epidermidis RP62A
[32] = test system: Stenotrophomonas maltophilia
[33] = test system: Staphylococcus aureus CIP 53.156
Staphylococcus aureus = test system: Staphylococcus aureus
[34] = test system: Staphylococcus xylosus ATCC 35033
Staphylococcus xylosus = test system: Staphylococcus xylosus

- MIC [1]: 28.4 µM (≈ 50 µg/mL)
- MIC [2]: 28.4 µM (≈ 50 µg/mL)
- MIC (Escherichia coli AB94012): ≥ 56.7 µM
- MIC [3]: 11.3 µM (≈ 20 µg/mL)
- MIC [4]: ≥ 56.7 µM
- MIC [5]: 11.3 µM (≈ 20 µg/mL)
- MIC [6]: 28.4 µM (≈ 50 µg/mL)
- MIC [7]: 28.4 µM (≈ 50 µg/mL)
- MIC [8]: 28.4 µM (≈ 50 µg/mL)
- MIC [9]: 11.3 µM (≈ 20 µg/mL)
- MIC [10]: 28.4 µM (≈ 50 µg/mL)
SMILES: CC[C@H](C)[C@H](NC(=O)[C@H](C)NC(=O)[C@H](CO)NC(=O)[C@@H](NC(=O)[C@H](CC(C)C)NC(=O)CNC(=O)CNC(=O)[C@@H](NC(=O)[C@H](CC(C)C)NC(=O)[C@H](CO)NC(=O)[C@@H]1CCCN1C(=O)[C@H](CC(C)C)NC(=O)[C@H](CC(C)C)NC(=O)[C@H](CO)NC(=O)[C@H](Cc1ccccc1)NC(=O)[C@@H](N)Cc1ccccc1)[C@@H](C)CC)C(C)C)C(=O)N[C@@H](CCCCN)C(N)=O [FFSLLPSLIGGLVSAIK]

- MIC [11]: 12.5 µM (≈ 35.9 µg/mL)
- MIC [12]: 17 µM (≈ 48.9 µg/mL)
SMILES: CC[C@H](C)[C@H](NC(=O)CN)C(=O)N[C@@H](CCSC)C(=O)N[C@@H](CC(=O)O)C(=O)N[C@@H](CO)C(=O)N[C@H](C(=O)N[C@@H](CCCCN)C(=O)NCC(=O)N[C@@H](CC(C)C)C(=O)N[C@@H](C)C(=O)N[C@@H](CCCCN)C(=O)N[C@@H](CC(N)=O)C(=O)N[C@@H](CC(C)C)C(=O)N[C@@H](C)C(=O)NCC(=O)N[C@@H](CCCCN)C(=O)N[C@@H](CC(C)C)C(=O)N[C@@H](CC(C)C)C(=O)N[C@@H](CC(=O)O)C(=O)N[C@@H](CO)C(=O)N[C@@H](CC(C)C)C(=O)N[C@@H](CCCCN)C(=O)N[C@H]1CSSC[C@@H](C(=O)O)NC(=O)CNC(=O)[C@H]([C@@H](C)O)NC(=O)[C@H]([C@@H](C)CC)NC(=O)[C@H](CCCCN)NC1=O)C(C)C [GIMDSVKGLAKNLAGKLLDSLKCKITGC]

- MIC [13]: 12.5 µM (≈ 27.6 µg/mL)
- MIC (Candida albicans): 150 µM (≈ 332 µg/mL)
- MIC [14]: ≥ 100 µM
- MIC [15]: 12.5 µM (≈ 27.6 µg/mL)
- MIC (Klebsiella pneumoniae): 100 µM (≈ 221 µg/mL)
- MIC (Neisseria meningitidis): ≥ 100 µM
- MIC (Pseudomonas aeruginosa): 100 µM (≈ 221 µg/mL)
- MIC (Saccharomyces cerevisiae): ≥ 300 µM
- MIC [16]: 25 µM (≈ 55.3 µg/mL)
- MIC (Salmonella typhimurium): ≥ 50 µM
- MIC [17]: 50.5 µM (≈ 112 µg/mL)
SMILES: CC(C)C[C@H](NC(=O)[C@H](CC(C)C)NC(=O)[C@H](CCCCN)NC(=O)CNC(=O)[C@H](C)NC(=O)[C@@H](NC(=O)[C@H](CCCCN)NC(=O)[C@H](CC(C)C)NC(=O)[C@H](CC(C)C)NC(=O)[C@H](CC(=O)O)NC(=O)[C@@H](NC(=O)[C@@H](NC(=O)[C@@H](NC(=O)CN)C(C)C)C(C)C)[C@@H](C)O)[C@@H](C)O)C(=O)NCC(=O)N[C@@H](CC(N)=O)C(=O)N[C@@H](CC(C)C)C(=O)N[C@H](C(=O)NCC(=O)N[C@@H](CO)C(=O)N[C@@H](CC(C)C)C(=O)N[C@@H](CO)C(=O)NCC(N)=O)C(C)C [GVVTDLLKTAGKLLGNLVGSLSG]
- MIC [18]: ≥ 100 µM
- MIC (Vibrio cholerae): 25 µM (≈ 55.3 µg/mL)

- MIC [19]: ≥ 1380 µM
- MIC [20]: ≥ 1380 µM
- MIC [21]: ≥ 1380 µM
- MIC [22]: 1380 µM (≈ 1020 µg/mL)
- MIC [23]: > 1380 µM
SMILES: CC[C@H](C)[C@H](N)C(=O)N[C@@H](CCCCN)C(=O)N[C@@H](CCCCN)C(=O)N[C@H](C(=O)N[C@@H](C)C(=O)N[C@@H](CO)C(=O)N[C@H](C(=O)O)C(C)C)C(C)C [IKKVASV]

- MIC (Acinetobacter baumannii): 6.25 µM (≈ 19.1 µg/mL)
- MIC [24]: ≥ 80 µM
- MIC [25]: 20 µM (≈ 61.3 µg/mL)
- MIC [26]: 20 µM (≈ 61.3 µg/mL)
- MIC (Klebsiella pneumoniae): 25 µM (≈ 76.6 µg/mL)
- MIC [27]: ≥ 100 µM
- MIC [28]: 40 µM (≈ 123 µg/mL)
- MIC [17]: 10 µM (≈ 30.6 µg/mL)
- MIC [29]: 12.5 µM (≈ 38.3 µg/mL)
- MIC [30]: 1.6 µM (≈ 4.9 µg/mL)
- MIC [31]: 3.1 µM (≈ 9.5 µg/mL)
- MIC [32]: 6.25 µM (≈ 19.1 µg/mL)
SMILES: CC[C@H](C)[C@H](N)C(=O)N[C@@H](CCCCN)C(=O)N[C@@H](CC(C)C)C(=O)N[C@@H](CO)C(=O)N1CCC[C@H]1C(=O)N[C@@H](CCC(=O)O)C(=O)N[C@H](C(=O)N[C@@H](CCCCN)C(=O)N[C@@H](CC(=O)O)C(=O)N[C@@H](CC(N)=O)C(=O)N[C@@H](CC(C)C)C(=O)N[C@@H](CCCCN)C(=O)N[C@@H](CCCCN)C(=O)N[C@H](C(=O)N[C@@H](CC(C)C)C(=O)N[C@@H](CCCCN)C(=O)NCC(=O)N[C@@H](C)C(=O)N[C@H](C(=O)N[C@@H](CCCCN)C(=O)NCC(=O)N[C@@H](C)C(=O)N[C@H](C(=O)N[C@@H](C)C(=O)N[C@H](C(=O)N[C@@H](C)C(=O)N[C@@H](CCCCN)C(=O)N[C@@H](CCSC)C(=O)N[C@H](C(N)=O)C(C)C)C(C)C)[C@@H](C)CC)[C@@H](C)CC)C(C)C)[C@@H](C)O [IKLSPETKDNLKKVLKGAIKGAIAVAKMV]

- MIC [33]: ≥ 57 µM
- MIC (Staphylococcus aureus): 15.4 µM (≈ 34 µg/mL)
- MIC [34]: 2.08 µM (≈ 4.6 µg/mL)
- MIC (Staphylococcus xylosus): 1.35 µM (≈ 3 µg/mL)
SMILES: CC[C@H](C)[C@H](NC(=O)[C@@H](N)CCCCN)C(=O)N[C@@H](CCCCN)C(=O)N[C@H](C(=O)N1CCC[C@H]1C(=O)N[C@@H](Cc1c[nH]c2ccccc12)C(=O)NCC(=O)N[C@@H](CCCCN)C(=O)N[C@H](C(=O)N[C@@H](CCCCN)C(=O)N[C@@H](CC(=O)O)C(=O)N[C@@H](Cc1ccccc1)C(=O)N[C@@H](CC(C)C)C(=O)N[C@H](C(=O)NCC(=O)NCC(=O)N[C@@H](CCSC)C(=O)N[C@@H](CCCCN)C(=O)N[C@@H](C)C(=O)N[C@H](C(=O)O)C(C)C)C(C)C)C(C)C)[C@@H](C)CC [KIKIPWGKVKDFLVGGMKAV]
